We go through eleven compounds from ChEMBL document CHEMBL4673302, “Efficient synthesis and antitumor evaluation of 4-aminomethyl-N-arylpyrazoles: Discovery of potent and selective agents for ovarian cancer” (Bioorg Med Chem, 2021).

Molecules are shown by their SMILES. Where only a bound is given, the exact number is not on record here.

In series [1] the test system is U-251. The experiment in a line: Anticancer activity against human U-251 cells assessed as cell growth inhibition measured after 48 hrs by sulforhodamine B assay. The format is functional. For orientation: Sulforhodamine B stains cellular protein and so reports cell mass.
Series [2] deals with MCF7. The experiment in a line: Anticancer activity against human MCF7 cells assessed as cell growth inhibition measured after 48 hrs by sulforhodamine B assay. The format is functional.
Series [3] relates to 786-0. The experiment in a line: Anticancer activity against human 786-0 cells assessed as cell growth inhibition measured after 48 hrs by sulforhodamine B assay. The format is functional.
The subject of series [4] is NCI-H460. Kind of series: Anticancer activity against human NCI-H460 cells assessed as cell growth inhibition measured after 48 hrs by sulforhodamine B assay. The format is functional.
The subject of series [5] is PC-3. The experiment in a line: Anticancer activity against human PC-3 cells assessed as cell growth inhibition measured after 48 hrs by sulforhodamine B assay. The format is functional.
Series [6] has as its system OVCAR-3. Kind of series: Anticancer activity against human OVCAR-3 cells assessed as cell growth inhibition measured after 48 hrs by sulforhodamine B assay. The format is functional.
For series [7], the system named is HT-29. Kind of series: Anticancer activity against human HT-29 cells assessed as cell growth inhibition measured after 48 hrs by sulforhodamine B assay. The format is functional.
The subject of series [8] is K562. Kind of series: Anticancer activity against human K562 cells assessed as cell growth inhibition measured after 48 hrs by sulforhodamine B assay. The format is functional.
For series [9], the system named is HaCaT. Kind of series: (§1) Cytotoxicity against human HaCaT cells assessed as cell growth inhibition measured after 48 hrs by sulforhodamine B assay. The format is cell-based. Conditions: hacat, 48 h.
The nature of series [10]: as §1. The format is cell-based. The following applies: HaCaT cells.

The GI50 is the concentration that inhibits growth by half. Turning to `CCOC(=O)c1nn(-c2ccccc2)c(-c2ccc(F)cc2)c1CNC(C)(C)C`, the 50% growth inhibitory concentration (GI50) is above 632 µM in [1] (Homo sapiens, U-251, 48 h); 306 µM in series [2] (Homo sapiens, MCF7, 48 h); above 632 µM in [3] (Homo sapiens, 786-0, 48 h); 365 µM in [4] (48 h); 69.3 µM in [5] (Homo sapiens, PC-3, 48 h); 0.013 µM in [6] (48 h). For the same compound, the GI50 in series [7] (48 h) amounted to 65.4 µM; in series [8] (48 h) it was 75.7 µM; in [9] it was 74.5 µM.

As to `CCOC(=O)c1nn(-c2ccc(Cl)cc2)c(-c2ccc(F)cc2)c1CNC(C)(C)C`, the GI50 was 519 µM in series [1] (Homo sapiens, U-251, 48 h); above 582 µM in [2] (Homo sapiens, MCF7, 48 h); above 582 µM in series [3] (Homo sapiens, 786-0, 48 h); 344 µM in series [4] (Homo sapiens, NCI-H460, 48 h); 405 µM in series [5] (Homo sapiens, PC-3, 48 h); 159 µM in series [6] (48 h). Further, the GI50 in series [7] (48 h) amounted to 87.1 µM; in series [8] (48 h), 78.5 µM; in series [9], 24.7 µM.

Regarding `CC(C)(C)NCc1c(C(=O)O)nn(-c2ccccc2)c1-c1ccc(F)cc1`, the GI50 was above 681 µM in [1] (Homo sapiens, U-251, 48 h); above 681 µM in series [2] (Homo sapiens, MCF7, 48 h); above 681 µM in series [3] (Homo sapiens, 786-0, 48 h); above 681 µM in [4] (Homo sapiens, NCI-H460, 48 h); above 681 µM in [5] (Homo sapiens, PC-3, 48 h); above 681 µM in series [7] (Homo sapiens, HT-29, 48 h). Also, the 50% growth inhibitory concentration (GI50) in series [8] (Homo sapiens, K562, 48 h) was above 681 µM. Besides, the GI50 at 48 h in [10] was above 681 µM.

For the compound `CCOC(=O)c1nn(-c2ccc(Cl)cc2)c(-c2ccc(OC)cc2)c1CNC(C)(C)C`, the GI50 was 431 µM in series [1] (Homo sapiens, U-251, 48 h); 238 µM in series [2] (48 h); 119 µM in series [3] (48 h); 27 µM in [4] (48 h); 210 µM in series [5] (48 h); 35.4 µM in series [6] (48 h). The GI50 in series [7] (48 h) was 45.3 µM; in series [8] (48 h), 6.1 µM; in [9], 60.1 µM.

Turning to `CC(C)(C)NCc1c(C(=O)O)nn(-c2ccc(Cl)cc2)c1-c1ccc(F)cc1`, the GI50 in [1] (Homo sapiens, U-251, 48 h) was above 623 µM; in [2] (Homo sapiens, MCF7, 48 h), 270 µM; in series [3] (Homo sapiens, 786-0, 48 h), 204 µM; in series [4] (Homo sapiens, NCI-H460, 48 h) it was above 623 µM; in series [5] (Homo sapiens, PC-3, 48 h), above 623 µM; in series [6] (Homo sapiens, OVCAR-3, 48 h), 116 µM. Further, the concentration for 50% growth inhibition (GI50) was above 623 µM in series [7] (Homo sapiens, HT-29, 48 h) and above 623 µM in series [8] (Homo sapiens, K562, 48 h). In addition, in series [10], the GI50 at 48 h turned out to be 28.7 µM.

In the case of `CC(C)(C)NCc1c(C(=O)O)nn(-c2ccccc2)c1-c1ccc(Cl)cc1`, the GI50 in series [1] (Homo sapiens, U-251, 48 h) is above 652 µM; in [2] (Homo sapiens, MCF7, 48 h), above 652 µM; in series [3] (Homo sapiens, 786-0, 48 h), above 652 µM; in series [4] (Homo sapiens, NCI-H460, 48 h) it was 70.5 µM; in series [5] (Homo sapiens, PC-3, 48 h) it was 145 µM; in series [6] (Homo sapiens, OVCAR-3, 48 h), above 652 µM. Also, the GI50 was 353 µM in [7] (Homo sapiens, HT-29, 48 h) and 364 µM in [8] (Homo sapiens, K562, 48 h). For the same compound, the GI50 at 48 h in [10] was above 652 µM.

As to `CC(C)(C)NCc1c(C(=O)O)nn(-c2ccccc2)c1-c1ccc(Br)cc1`, the GI50 in [1] (Homo sapiens, U-251, 48 h) was 126 µM; in series [2] (Homo sapiens, MCF7, 48 h), 293 µM; in series [3] (Homo sapiens, 786-0, 48 h), above 585 µM; in series [4] (Homo sapiens, NCI-H460, 48 h), above 585 µM; in series [5] (Homo sapiens, PC-3, 48 h), above 585 µM; in [6] (Homo sapiens, OVCAR-3, 48 h), above 585 µM. The GI50 in [7] (Homo sapiens, HT-29, 48 h) was above 585 µM; in series [8] (Homo sapiens, K562, 48 h), above 585 µM. Besides, in series [10], the concentration for 50% growth inhibition (GI50) at 48 h turned out to be 366 µM.

On to `CC(C)(C)NCc1c(C(=O)O)nn(-c2ccc(Cl)cc2)c1-c1ccc(Br)cc1`, for which the GI50 in [1] (Homo sapiens, U-251, 48 h) was above 542 µM; in series [2] (Homo sapiens, MCF7, 48 h), 221 µM; in series [3] (Homo sapiens, 786-0, 48 h), 542 µM; in [4] (Homo sapiens, NCI-H460, 48 h), above 542 µM; in series [5] (Homo sapiens, PC-3, 48 h), above 542 µM; in series [6] (Homo sapiens, OVCAR-3, 48 h), 513 µM. Also, the GI50 in series [7] (Homo sapiens, HT-29, 48 h) was above 542 µM; in series [8] (Homo sapiens, K562, 48 h), 297 µM. In [10], the GI50 at 48 h was above 542 µM.

Regarding `CCOC(=O)c1nn(-c2ccc(Cl)cc2)c(-c2ccc(C)cc2)c1CNC(C)(C)C`, the GI50 in series [1] (48 h) is 151 µM; in [2] (48 h), 141 µM; in series [3] (Homo sapiens, 786-0, 48 h), above 588 µM; in series [4] (Homo sapiens, NCI-H460, 48 h) it was 277 µM; in series [5] (48 h) it was 249 µM; in series [6] (48 h), 49.2 µM. Also, the figures for the 50% growth inhibitory concentration (GI50) in series [7] (48 h), in [8] (48 h) and in series [9] were 106 µM, 106 µM and 144 µM, respectively.

In the case of `CCOC(=O)c1nn(-c2ccccc2)c(-c2ccc([N+](=O)[O-])cc2)c1CNC(C)(C)C`, the GI50 was 220 µM in series [1] (48 h); 206 µM in [2] (Homo sapiens, MCF7, 48 h); 200 µM in series [3] (48 h); 429 µM in series [4] (Homo sapiens, NCI-H460, 48 h); above 592 µM in [5] (48 h); 8.78 µM in series [6] (48 h). The GI50 in series [7] (48 h) amounted to 71.3 µM; in [8] (48 h), 12 µM. Moreover, the concentration for 50% growth inhibition (GI50) at 48 h in [10] stood at 103 µM.

`COc1cccc2c1C(=O)c1c(O)c3c(c(O)c1C2=O)C[C@@](O)(C(=O)CO)C[C@@H]3O[C@H]1C[C@H](N)[C@H](O)[C@H](C)O1` [DOXORUBICIN]: the GI50 is below 0.046 µM in [1] (Homo sapiens, U-251, 48 h); below 0.046 µM in series [2] (Homo sapiens, MCF7, 48 h); below 0.046 µM in series [4] (Homo sapiens, NCI-H460, 48 h); 0.42 µM in series [5] (Homo sapiens, PC-3, 48 h); 0.09 µM in series [6] (Homo sapiens, OVCAR-3, 48 h); 0.26 µM in series [7] (Homo sapiens, HT-29, 48 h). Moreover, the GI50 in [8] (Homo sapiens, K562, 48 h) was determined as 0.06 µM. Moreover, the GI50 at 48 h in [10] was below 0.046 µM.
